The record followed here is US7855200B2, “Method for treatment of gastric ulcers and ulcers induced by aspirin” (Council of Scientific and Industrial Research, priority 2006, dated 2010).

What all share (type): in vivo, albino rats
For assay [1], the system named is acetyl salicylic acid induced gastric lesions. The experiment in a line: Acetyl salicylic acid (aspirin) induced gastric ulcer. On the set-up: Ulcer index Mean(SE): scale not given here. As to conditions: rats, 25 mg/kg per orally daily for five days, aspirin 200 mg/kg; for inhibition at 25 mg/kg: Rattus norvegicus, po, 120 h. The protocol:
Stress induced gastric ulceration The commercially available drug ranitidine (sigma), Omeprazole (sigma) and sucralfate (Merck) were used as reference standard in experimental models. The Tween-80 (SD fine chemicals) was used as vehicle for the administration of the drug, which is used as control. Antiulcer activity of the compounds under taken was studied. The animals were divided into 20 groups of 6 animals each. Group 1 received the vehicle Tween 80 (1%, 1 ml) which served as the control. Group 2 received ranitidine at a dose of 50-mg/kg body weight, which served as standard for comparison. Group 3 to 20 at a dose of 25 mg/kg body weight. Rats were administered per orally with a daily dose of the compounds and the drug ranitidine for a period of five days and then fasted for 24 hours. The […] acetyl salicylic acid (aspirin) at a dose of 200 mg/kg body weight was administered as a suspension in tween-80 (1%), 30 min after the drug administration each day. All drugs were administered orally on the 6th day after the last administration of the drugs and the ulcer inducing agent aspirin, the rats were killed by cervical dislocation and their stomach were opened along the greater curvature and washed with luke warm saline and examined under a dissecting microscope. The ulcer index was calculated for each stomach. […] The antiulcer activity of the compounds was studied. The animals were divided into 19 groups of 6 animals each. Group 1 received the vehicle Tween 80 (1%, 1 ml) which served as the control. Group 2 received ranitidine at a dose of 50-mg/kg-body weight, which served as standard for comparison. […] Rats were administered per orally with a daily dose of the compounds and the drug ranitidine to respective groups for a period of five days and then fasted for 24 hours. The […] acetyl salicylic acid (aspirin) at a dose of 200 mg/kg body weight was administered as a suspension in tween-80 (1%), 30 min after the drug administration each day. All drugs were administered orally on ht […] day after the last administration of the drugs and the ulcer inducing agent aspirin, the rats were killed by cervical dislocation and their stomach were opened along the greater curvature and washed with luke warm saline and examined under a dissecting microscope.

The test system of assay [2] is ethanol induced gastric ulcers. The experiment in a line: Ethanol induced ulcers. Particulars: rats, ethanol challenge; for Acidity Total mEg / Gastric content / pH: 4 hours after pylorus ligation. The method, then: Stress induced gastric ulceration The commercially available drug ranitidine (sigma), Omeprazole (sigma) and sucralfate (Merck) were used as reference standard in experimental models. The Tween-80 (SD fine chemicals) was used as vehicle for the administration of the drug, which is used as control. The animals were divided into 22 groups of 6 animals each. Animals were deprived of food for 48 hours but had free access to water. Group 1 received the vehicle Tween 80 (1%, 1 ml) which served as the control. Group 2 received ranitidine at a dose of 50-mg/kg-body weight, which served as standard for comparison. Group 3 to received Omeprazole at a dose of 30-mg/kg body weight, which served as standard for comparison. Group 4 received sucralfate at a dose of 400-mg/kg body weight, which served as standard for comparison. Group 5 to 22 received at a dose of 25 mg/kg body weight. Lesions were induced 1 hour after ethanol challenge animals. The stomach was ligated at the pylorus under ether anesthesia. 4 hours after pylorus ligation, the animals were sacrificed and the contents drained and centrifuges at 5000 rpm for 10 minutes. Aliquots of supernatant were used for determination of total acid by titrating with 0.01N NaOH using topfers reagent and phenolphthalein indicators. […] The animals were divided into 9 groups of 6 animals each. Animals were deprived of food for 48 hours but had free access to water. Group 1 received the vehicle Tween 80 (1%, 1 ml) which served as the control. Group 2 received ranitidine at a dose of 50-mg/kg-body weight, which served as standard for comparison. Group 3 to received Omeprazole at a dose of 30-mg/kg body weight, which served as standard for comparison. Group 4 received sucralfate at a dose of 400-mg/kg body weight, which served as standard for comparison. […] Lesions were induced 1 hour after ethanol challenge animals. The stomach was ligated at the pylorus under ether anesthesia. 4 hours after pylorus ligation, the animals were sacrificed and the contents drained and centrifuges at 5000 rpm for 10 minutes. Aliquots of supernatant were used for determination of total acid by titrating with 0.01N NaOH using topfers reagent and phenolphthalein indicators.

Assay [3] relates to Pylorus ligated rats. The experiment in a line: Pylorus ligated ulcers. As to conditions: 25 mg/kg, 4 hours after pylorus ligation; for inhibition at 25 mg/kg: Rattus norvegicus. An excerpt:
(§1) The compounds taken under study for antigastric ulcer screening by four different models were selected using experimental albino rats: • 1. Aspirin induced gastric ulceration • 2. Pylorus ligated gastric ulceration • 3. Ethanol induced gastric ulceration • 4. Stress induced gastric ulceration
(§2) The commercially available drug ranitidine (sigma), Omeprazole (sigma) and sucralfate (Merck) were used as reference standard in experimental models. The Tween-80 (SD fine chemicals) was used as vehicle for the administration of the drug, which is used as control.
The animals were divided into 19 groups of 6 animals each. Animals were deprived of food for 48 hours but had free access to water. Group 1 received the vehicle Tween 80 (1%, 1 ml) which served as the control. Group 2 received ranitidine at a dose of 50-mg/kg-body weight, which served as standard for comparison. […] After one hour of administration of drug the stomach was ligated at the pylorus under ether anesthesia. 4 hours after pylorus ligation, the animals were sacrificed and the contents drained and centrifuges at 5000 rpm for 10 minutes. Aliquots of supernatant were used for determination of total acid by titrating with 0.01N NaOH using topfers reagent and phenolphthalein indicators. 4.
The animals were divided into 7 groups of 6 animals each. Animals were deprived of food for 48 hours but had free access to water. Group 1 received the vehicle Tween 80 (1%, 1 ml) which served as the control. Group 2 received ranitidine at a dose of 50-mg/kg-body weight, which served as standard for comparison. Group 3 to 7 received at a dose of 50, 25, 15, 10 and 5 mg/kg body weight respectively. After one hour of administration of drug the stomach was ligated at the pylorus under ether anesthesia. 4 hours after pylorus ligation, the animals were sacrificed and the contents drained and centrifuges at 5000 rpm for 10 minutes. Aliquots of supernatant were used for determination of total acid by titrating with 0.01N NaOH using topfers reagent and phenolphthalein indicators.

In assay [4] the test system is gastric ulceration in cold restraint rats. The experiment in a line: Cold restraint (stress) induced ulcers. More on the design: Ulcer index Mean(SE): scale not given here. As to conditions: for inhibition at 25 mg/kg: po; for inhibition at 25 mg/kg / Ulcer index Mean(SE): rats, 4° C. for 2 hours.
Text: as §1, §2
(§3) The antiulcer activity of the compounds was studied. The animals were divided into 21 groups of 7 animals each. Group 1 received the vehicle Tween 80 (1%, 1 ml) which served as the control. Group 2 received ranitidine at a dose of 50-mg/kg body weight, which served as standard for comparison. Group 3 to 21 at a dose of 25 mg/kg body weight. Animals were deprived of food 48 hours before the experiment. The water was allowed for free access. Rats were administered per orally with compounds and the drug ranitidine. The water was removed 1 hour before restraint and exposed to a temperature of 4° C. for 2 hours. Two hours after stress, the animals were sacrificed. The stressed animals were opened along the greater curvature and the severity of gastric ulcer was assessed in terms of mean ulcer index. 2.
as §3, with “8” for “21”, “6” for “7”, “50, 25, 15, 10 and 5” for “25”, “weight respectively.” for “weight.”, “index.” for “index. 2.”

[5] abbreviates: Rattus norvegicus, 25 mg/kg per orally.

Values joined by “and” are separate entries in the source; they are usually repeats but may differ in a detail not shown here. Equal entries are not always repeated.

As a reminder, the inhibition is how much of the control response was suppressed. In the case of `O=c1cc(-c2ccccc2)oc2cc(OCCCN3CCCCC3)cc(O)c12` [CPP-2, 5-Hydroxy-2-phenyl-7-(3-piperidin-1-yl-propoxy)-chromen-4-one], the inhibition at 25 mg/kg in assay [1] was 66.8%; in assay [2] (Rattus norvegicus, 25 mg/kg), 36.2%; in assay [3], 68.5%; in assay [4] (setting [5]), 61.4%. Further, the “Ulcer index Mean(SE)” value in assay [1] is 14.99; in assay [2] (25 mg/kg), 28.83 (±2.71); in assay [3], 15.80 (±2.71); in assay [4] (25 mg/kg per orally), 15.71. The figures for the “Acidity Total mEg” value in assay [2] (25 mg/kg) and in assay [3] were 44.60 (±4.12) mEg and 29.06 (±2.20) m Eg, respectively. The Gastric content in assay [2] (25 mg/kg) is given as 3.2 (±0.62); in assay [3], 2.60 (±0.24). Further, the pH in assay [2] (25 mg/kg) is recorded as 3.33 (±0.16); in assay [3] it was 3.25 (±0.11).
`O=c1cc(-c2ccccc2)oc2cc(OC3OC(CO)C(O)C(O)C3O)cc(O)c12` (stereo not drawn) [CG, 5-Hydroxy-2-phenyl-7-(3,4,5-trihydroxy-6-hydroxymethyl-tetrahydro-pyran-2-yloxy)-chromen-4-one]: the inhibition at 25 mg/kg in assay [1] came out at 52%; in assay [2] (Rattus norvegicus, 25 mg/kg) it was 52.5%; in assay [3], 50.2%; in assay [4] (setting [5]) it was 47.7%. For the same compound, the “Ulcer index Mean(SE)” value in assay [1] is listed as 21.66; in assay [2] (25 mg/kg) it was 31.66 (±4.41); in assay [3] it was 24.93 (±1.66); in assay [4] (25 mg/kg per orally), 21.00. Moreover, the “Acidity Total mEg” value in assay [2] (25 mg/kg) is listed as 20.01 (±4.41) mEg; in assay [3], 44.33 (±2.33) m Eg. In addition, the Gastric content in assay [2] (25 mg/kg) is on record as 5.90 (±0.49); in assay [3] it was 1.50 (±0.28). Further, the pH in assay [2] (25 mg/kg) is recorded as 5.90 (±0.49); in assay [3], 3.50 (±0.28).
As for `CCCCCCCCCCCCCCCCC(=O)Oc1cc2oc(-c3ccccc3)cc(=O)c2c(O)c1OC` [ORC-16, Heptadecanoic acid 5-hydroxy-6-methoxy-4-oxo-2-phenyl-4H-chromen-7-yl ester], the inhibition at 25 mg/kg in assay [1] worked out at 13.3%; in assay [2] (Rattus norvegicus, 25 mg/kg), 22.8%; in assay [4] (setting [5]), 14%. The “Ulcer index Mean(SE)” value in assay [1] is reported as 39.13; in assay [2] (25 mg/kg) it was 51.50 (±1.05); in assay [3], 43.33 (±2.10); in assay [4] (25 mg/kg per orally), 35.00. Also, the “Acidity Total mEg” value in assay [2] (25 mg/kg) is 43.20 (±3.86) mEg; in assay [3], 42.20 (±2.20) m Eg. In addition, the Gastric content in assay [2] (25 mg/kg) was 3.7 (±0.10); in assay [3] it was 1.92 (±0.20). Besides, the pH in assay [2] (25 mg/kg) is on record as 3.58 (±0.23); in assay [3], 3.66 (±0.20).
Regarding `O=c1cc(-c2ccccc2)oc2cc(OCCCN3CCOCC3)cc(O)c12` [CHM-2, 5-Hydroxy-7-(3-morpholin-4-yl-propoxy)-2-phenyl chromen-4-one], the inhibition at 25 mg/kg stood at 55.6% in assay [1]; 25% in assay [2] (Rattus norvegicus, 25 mg/kg); 48.5% in assay [3]; 35.1% in assay [4] (setting [5]). The “Ulcer index Mean(SE)” value is reported as 19.99 in assay [1], 40.11 (±3.65) in assay [2] (25 mg/kg), 25.82 (±2.00) in assay [3] and 26.42 in assay [4] (25 mg/kg per orally). Also, the results for the “Acidity Total mEg” value in assay [2] (25 mg/kg) and in assay [3] were 38.28 (±2.24) mEg and 41.48 (±3.20) m Eg, respectively. Moreover, the Gastric content in assay [2] (25 mg/kg) is given as 2.8 (±0.72); in assay [3], 1.88 (±0.62). For the same compound, the values for the pH in assay [2] (25 mg/kg) and in assay [3] were 4.00 (±0.18) and 3.79 (±0.20), respectively.
As to `CN1C(=O)CN=C(c2ccccc2)c2cc(Cl)ccc21` [Diazepam, reference compound], the inhibition at 1 mg/kg in assay [4] (Rattus norvegicus, 2 h) was 75.4%. Further, the “Ulcer index Mean(SE)” value in assay [4] (1 mg/kg) was 10.00.
As for sucralfate [reference compound], in assay [2] (400 mg/kg), the Inhibition % was 87.50%; the “Ulcer index Mean(SE)” value is 08.33 (±2.23); the “Acidity Total mEg” value is listed as 58.00 (±2.30) mEg; the Gastric content is 3.01 (±0.48) and 3.0 (±0.48). Also, the pH in assay [2] (400 mg/kg) is given as 3.00 (±0.19).
For the compound `COc1ccc2[nH]c([S+]([O-])Cc3ncc(C)c(OC)c3C)nc2c1` (stereo not drawn) [Omeprazole, reference compound], in assay [2] (Rattus norvegicus, 30 mg/kg), the inhibition at 30 mg/kg amounted to 67.5%. Also, in assay [2] (30 mg/kg), the “Ulcer index Mean(SE)” value is recorded as 23.33 (±2.21), the Gastric content is reported as 3.5 (±0.68) and the pH is reported as 4.65 (±0.19).
